Source: article PMC2535826, “Cross-Species Differential Plasma Protein Binding of MBX-102/JNJ39659100: A Novel PPAR-γ Agonist” (PPAR Research, 2008)
Like-named read-outs stand apart in the source and are kept apart here.

What was measured:
[1] = tested on: human, mouse, or rat PPAR-γ; assay: PPAR-γ reporter gene assays comparing human, mouse and rat PPAR-γ (data not shown); format: cell-based
Description: For a pool sufficient to supply 100 wells, 6 million cells were diluted into medium for a total volume of 9 mL. The DNA-Lipofectamine 2000 mixture was prepared as per manufacturer’s instructions. For a pool sufficient to supply 100 wells, 5 μg Gal 4-Mouse PPAR-γ LBD, 5 μg pFR-Luciferase, and 500 ng Lac-z plasmids were mixed with 40 μL of Lipofectamine 2000 in Optimem medium in a total volume of 1 mL. The cell suspension was mixed with 1 mL of the DNA-Lipofectamine 2000 mixture. The mixture was plated into a 96-well plate and incubated for 4 hours at which time the transfection medium was removed and replaced with 100 μL DMEM, 10% (v/v) FBS and cultured overnight. The culture medium was then removed from the plates and replaced with 50 μL Pro293A medium. […] Measurement of luciferase and fluorescence activity was performed according to the manufacturer’s instructions. […] An 80 μL lysate aliquot was transferred to opaque white well plates and the luminescence measured. […] Each experimental condition was assessed in quadruplicate. The data were normalized for each well by dividing the luminescence measurement by the fluorescence measurement. Dose-response curves were generated and EC50 values were calculated using Prism Graphpad version 5.1.

[2] = target: T1, Gal 4-Mouse PPAR-γ LBD (Mus musculus, UniProt P37238); assay: PPAR-γ reporter gene (transactivation) assay in HEK-293T cells with serum or serum proteins; format: cell-based
T1 construct: 5 μg Gal 4-Mouse PPAR-γ LBD; expressed in transfected cells; host or cells: HEK-293T
T1 sequence (P37238 238-503 limits assumed): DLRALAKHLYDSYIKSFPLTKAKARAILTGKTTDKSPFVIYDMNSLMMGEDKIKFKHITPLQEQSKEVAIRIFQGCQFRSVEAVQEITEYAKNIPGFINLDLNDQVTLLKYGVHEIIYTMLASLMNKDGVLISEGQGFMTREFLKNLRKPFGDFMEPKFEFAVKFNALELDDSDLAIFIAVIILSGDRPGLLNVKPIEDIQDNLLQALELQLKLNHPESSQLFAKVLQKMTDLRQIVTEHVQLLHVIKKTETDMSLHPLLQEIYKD
Description: All cells were maintained at 37°C in a humidified atmosphere of 8% CO2 in air.
For a pool sufficient to supply 100 wells, 6 million cells were diluted into medium for a total volume of 9 mL. The DNA-Lipofectamine 2000 mixture was prepared as per manufacturer’s instructions. For a pool sufficient to supply 100 wells, 5 μg Gal 4-Mouse PPAR-γ LBD, 5 μg pFR-Luciferase, and 500 ng Lac-z plasmids were mixed with 40 μL of Lipofectamine 2000 in Optimem medium in a total volume of 1 mL. The cell suspension was mixed with 1 mL of the DNA-Lipofectamine 2000 mixture. The mixture was plated into a 96-well plate and incubated for 4 hours at which time the transfection medium was removed and replaced with 100 μL DMEM, 10% (v/v) FBS and cultured overnight. The culture medium was then removed from the plates and replaced with 50 μL Pro293A medium. Compounds and charcoal stripped/delipidated serum or serum albumin, or alpha-1 acid glycoprotein stock solutions were prepared at 2X final concentration in Pro293A medium and mixed together prior to addition of 50 μL to the transfected cells and incubated for an additional 24 hours. Measurement of luciferase and fluorescence activity was performed according to the manufacturer’s instructions. Briefly, after removal of media, cells were incubated for 10 minutes in 100 μL of Steady-Glo reagent. An 80 μL lysate aliquot was transferred to opaque white well plates and the luminescence measured. The 80 μL aliquot was then transferred back to the original plate. […] Each experimental condition was assessed in quadruplicate. The data were normalized for each well by dividing the luminescence measurement by the fluorescence measurement. Dose-response curves were generated and EC50 values were calculated using Prism Graphpad version 5.1.

[3] = target: T2, rat serum albumin (Rattus norvegicus, UniProt P02770); assay: Albumin binding by surface plasmon resonance (SPR), RSA
T2 construct: purchased Sigma
Description: (§1) The characterization of the binding of MBX-102 acid against human, mouse, and rat albumin was performed using SPR-based biosensors (Biosensor Tools, Salt Lake City, Utah, USA). The assay methods used to assess the binding of MBX-102 acid to human, mouse, and rat albumins have been described previously. Briefly, each albumin was immobilized onto a CM5 sensor chip using standard amine coupling. Immobilization densities were between 10 000 and 13 000 RU. […] Each of the 16 different concentrations was tested in duplicate. […] All binding data were collected at 37°C. The binding response profile of MBX-102 acid over the three different albumin surfaces was evaluated and the binding constants for the high-affinity site were determined using a two-independent-site model. Conversion from KD to %bound was performed as previously described.

[4] = target: T3, mouse serum albumin (Mus musculus, UniProt P07724); assay: Albumin binding by surface plasmon resonance (SPR), MSA
T3 construct: purchased Sigma
Description: as §1

[5] = tested on: mouse and human plasma; assay: Competitive equilibrium dialysis, mouse versus human plasma; format: in vitro ADME, CD-1 mouse; conditions: 37°C, n = 5
Description: A comparison of the binding to plasma from different species was performed essentially by the method described below. Briefly, [^3H] MBX-102 acid spiked plasma samples were formulated as described above with the exception that pH was not adjusted to 7.4 and the final DMSO concentration was 0.6%. A 1 mL sample of spiked human plasma was applied to one side of the dialysis membrane and 1 mL of spiked animal plasma was applied to the other side. The samples were dialyzed by rotation at 20 rpm for up to 120 hours in a 37°C incubator. The ratio of free drug in plasma was calculated according to the equation: ratio of free drug (animal versus human) = (total cpm in human plasma)/(total cpm in animal plasma).

[6] = Plasma protein binding by equilibrium dialysis, human plasma; format: in vitro ADME; conditions: equilibrium dialysis vs PBS, 37°C, read-out: %Protein Binding ± SD (converted)
Description: Radiolabeled MBX-102 acid was prepared as a 1 mL ethanol solution at a concentration of 50 μM (1 mCi total). […] Final solvent concentrations were 1% of the total volume. Plasma was stored at −20°C. Prior to use, it was thawed and spun at approximately 2000 rpm for 5 minutes to remove any precipitated material. The pH was adjusted to pH 7.4 by careful addition of NaH2PO4. A 1 mL sample of spiked plasma was prepared by direct dilution of [^3H]-MBX-102 acid stock solution into plasma and then added to one side of an equilibrium dialysis chamber. The other chamber was filled with 1 mL of 0.01 M phosphate buffered saline (PBS). The dialysis apparatus was placed in a water bath at 37°C and rotated at 20 rpm. […] Once equilibrium was established, the contents of the cell chambers were removed and analyzed by liquid scintillation counting. The chambers were sampled in triplicate. […] The recovery percentage was found not to vary with MBX-102 acid concentration.

T2 sequence (P02770 25-608): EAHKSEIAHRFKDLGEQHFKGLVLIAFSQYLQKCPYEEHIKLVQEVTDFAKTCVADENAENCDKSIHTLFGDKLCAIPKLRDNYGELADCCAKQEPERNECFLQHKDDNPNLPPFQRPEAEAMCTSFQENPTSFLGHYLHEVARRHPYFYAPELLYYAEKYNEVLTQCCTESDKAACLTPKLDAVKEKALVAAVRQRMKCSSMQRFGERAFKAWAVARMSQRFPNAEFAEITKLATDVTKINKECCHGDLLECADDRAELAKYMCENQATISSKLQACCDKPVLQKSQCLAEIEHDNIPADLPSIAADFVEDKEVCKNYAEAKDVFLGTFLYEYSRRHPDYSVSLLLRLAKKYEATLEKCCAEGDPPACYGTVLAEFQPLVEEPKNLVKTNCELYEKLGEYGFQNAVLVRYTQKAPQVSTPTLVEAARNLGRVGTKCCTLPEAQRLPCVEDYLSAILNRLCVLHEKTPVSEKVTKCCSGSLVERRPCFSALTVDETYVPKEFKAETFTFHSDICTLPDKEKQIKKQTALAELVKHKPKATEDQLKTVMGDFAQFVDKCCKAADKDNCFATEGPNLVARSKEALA
T3 sequence (P07724 25-608): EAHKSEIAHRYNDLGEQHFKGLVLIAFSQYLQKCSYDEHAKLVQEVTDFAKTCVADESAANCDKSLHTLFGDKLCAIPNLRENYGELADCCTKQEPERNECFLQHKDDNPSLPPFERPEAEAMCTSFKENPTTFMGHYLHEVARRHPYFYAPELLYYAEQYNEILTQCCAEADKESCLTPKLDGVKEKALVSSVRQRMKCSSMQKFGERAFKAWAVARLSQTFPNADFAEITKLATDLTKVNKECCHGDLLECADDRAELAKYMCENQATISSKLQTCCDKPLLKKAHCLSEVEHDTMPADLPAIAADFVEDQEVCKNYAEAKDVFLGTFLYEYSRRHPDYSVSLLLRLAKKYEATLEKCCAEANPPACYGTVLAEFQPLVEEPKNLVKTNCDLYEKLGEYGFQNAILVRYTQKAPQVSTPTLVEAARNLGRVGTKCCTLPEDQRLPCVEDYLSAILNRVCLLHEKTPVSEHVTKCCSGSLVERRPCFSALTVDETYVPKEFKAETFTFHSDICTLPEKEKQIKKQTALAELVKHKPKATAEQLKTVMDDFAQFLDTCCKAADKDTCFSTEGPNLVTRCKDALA

Compound: O=C(O)[C@H](Oc1cccc(C(F)(F)F)c1)c1ccc(Cl)cc1 (stereo in doubt) [MBX-102 acid]
- intrinsic differences in ability to activate human, mouse, or rat PPAR-γ [1]: no intrinsic differences
- EC50 ([2]; 0% human serum albumin (Figure 3), 2–6 experiments, mean ± SD, read-out: EC50 PPAR-γ activation): 14.4 ± 2.5 µM
- EC50 ([2]; 0% serum (Figure 2), 3 experiments, mean ± SD, read-out: EC50 PPAR-γ activation): 15.1 ± 1.9 µM
- EC50 ([2]; 0.08% human serum albumin (Figure 3), 2–6 experiments, mean ± SD, read-out: EC50 PPAR-γ activation): 44 ± 5.6 µM
- EC50 ([2]; 2% (v/v) human serum (Figure 2), 3 experiments, mean ± SD, read-out: EC50 PPAR-γ activation): 43.5 ± 6.9 µM
- fold change in mean EC50 relative to no serum ([2]; 2% human serum): 3 fold
- EC50 ([2]; 10% (v/v) human serum (Figure 2), 3 experiments, mean ± SD, read-out: EC50 PPAR-γ activation): 288 ± 39.6 µM
- fold change in mean EC50 relative to no serum ([2]; 10% human serum): 19 fold
- EC50 ([2]; 10% human serum (Table 4, Figure 4), 3 experiments, read-out: Mean EC50 ± SD, Human): 260 ± 16.9 µM
- EC50 ([2]; 10% mouse serum (Table 4, Figure 4), 3 experiments, read-out: Mean EC50 ± SD, Mouse): 170 µM
- EC50 ([2]; 10% rat serum (Table 4, Figure 4), 3 experiments, read-out: Mean EC50 ± SD, Rat): 196 ± 18 µM
- EC50 ([2]; 20% (v/v) human serum (Figure 2), 3 experiments, mean ± SD, read-out: EC50 PPAR-γ activation): 442 ± 29.8 µM
- fold change in mean EC50 relative to no serum ([2]; 20% human serum): 29 fold
- %Bound ([3]; RSA, converted from KD): 98.1%
- Kd ([3]; RSA, high-affinity site, two-independent-site model, 37°C, pH 7.4): 12.8 µM
- fraction unbound ([3]; rat, rat serum albumin immobilized on a CM5 sensor chip, pH 7.4, RSA, converted from KD, read-out: %Bound): < 0.02
- %Bound ([4]; converted from KD): 99.2%
- Kd ([4]; high-affinity site, two-independent-site model, 37°C, pH 7.4): 5.5 µM
- Free Fraction Ratio Mouse:Human ([5]; MBX-102 acid 100 μM): 10.5 ± 5.5
- Free Fraction Ratio Mouse:Human ([5]; MBX-102 acid 300 μM): 5.9 ± 3.6
- Free Fraction Ratio Mouse:Human ([5]; MBX-102 acid 700 μM): 3.7 ± 1.9
- Free Fraction Ratio Mouse:Human ([5]; MBX-102 acid 1000 μM): 2.6 ± 1.1
- Free Fraction Ratio Mouse:Human ([5]; MBX-102 acid 1300 μM): 2.3 ± 0.7
- fraction unbound at 400 µM ([6]; pH 7.4, MBX-102 acid 400 μM): 0.002
- fraction unbound at 600 µM ([6]; pH 7.4, MBX-102 acid 600 μM): 0.002
- fraction unbound at 1000 µM ([6]; pH 7.4, MBX-102 acid 1000 μM): 0.003
- fraction unbound at 2000 µM ([6]; pH 7.4, MBX-102 acid 2000 μM): 0.002
